Tested on: C. albicans
Test: Test Example 9: concentration of amphotericin B

Measured: Number of colonies

C[C@@H]1[C@H](O)[C@@H](C)/C=C/C=C/C=C/C=C/C=C/C=C/C=C/[C@H](O[C@@H]2O[C@H](C)[C@@H](O)[C@H](N)[C@@H]2O)C[C@@H]2O[C@](O)(C[C@@H](O)C[C@@H](O)[C@H](O)CC[C@@H](O)C[C@@H](O)CC(=O)O[C@H]1C)C[C@H](O)[C@H]2C(=O)O [Amphotericin B]
−: ATCC10231, Amphotericin B 0.1 mg, 24 hours, 10^2 cfu/mL | ATCC10231, Amphotericin B 0.1 mg, 24 hours, 10^3 cfu/mL | ATCC10231, Amphotericin B 0.1 mg, 24 hours, 10^4 cfu/mL | ATCC10231, Amphotericin B 0.1 mg, 24 hours, 10^5 cfu/mL | ATCC10231, Amphotericin B 0.1 mg, 44 hours, 10^2 cfu/mL | ATCC10231, Amphotericin B 0.1 mg, 44 hours, 10^3 cfu/mL | ATCC10231, Amphotericin B 0.1 mg, 44 hours, 10^4 cfu/mL | ATCC10231, Amphotericin B 1.0 mg, 24 hours, 10^2 cfu/mL | ATCC10231, Amphotericin B 1.0 mg, 24 hours, 10^3 cfu/mL | ATCC10231, Amphotericin B 1.0 mg, 24 hours, 10^4 cfu/mL | ATCC10231, Amphotericin B 1.0 mg, 24 hours, 10^5 cfu/mL | ATCC10231, Amphotericin B 1.0 mg, 44 hours, 10^2 cfu/mL | ATCC10231, Amphotericin B 1.0 mg, 44 hours, 10^3 cfu/mL | ATCC10231, Amphotericin B 1.0 mg, 44 hours, 10^4 cfu/mL | ATCC10231, Amphotericin B 1.0 mg, 44 hours, 10^5 cfu/mL | ATCC10231, Amphotericin B 10 mg, 24 hours, 10^2 cfu/mL | ATCC10231, Amphotericin B 10 mg, 24 hours, 10^3 cfu/mL | ATCC10231, Amphotericin B 10 mg, 24 hours, 10^4 cfu/mL | ATCC10231, Amphotericin B 10 mg, 24 hours, 10^5 cfu/mL | ATCC10231, Amphotericin B 10 mg, 44 hours, 10^2 cfu/mL | ATCC10231, Amphotericin B 10 mg, 44 hours, 10^3 cfu/mL | ATCC10231, Amphotericin B 10 mg, 44 hours, 10^4 cfu/mL | ATCC10231, Amphotericin B 10 mg, 44 hours, 10^5 cfu/mL | ATCC14053, Amphotericin B 0.1 mg, 24 hours, 10^2 cfu/mL | ATCC14053, Amphotericin B 0.1 mg, 24 hours, 10^3 cfu/mL | ATCC14053, Amphotericin B 0.1 mg, 24 hours, 10^4 cfu/mL | ATCC14053, Amphotericin B 0.1 mg, 24 hours, 10^5 cfu/mL | ATCC14053, Amphotericin B 0.1 mg, 44 hours, 10^2 cfu/mL | ATCC14053, Amphotericin B 0.1 mg, 44 hours, 10^3 cfu/mL | ATCC14053, Amphotericin B 0.1 mg, 44 hours, 10^4 cfu/mL | ATCC14053, Amphotericin B 1.0 mg, 24 hours, 10^2 cfu/mL | ATCC14053, Amphotericin B 1.0 mg, 24 hours, 10^3 cfu/mL | ATCC14053, Amphotericin B 1.0 mg, 24 hours, 10^4 cfu/mL | ATCC14053, Amphotericin B 1.0 mg, 24 hours, 10^5 cfu/mL | ATCC14053, Amphotericin B 1.0 mg, 44 hours, 10^2 cfu/mL | ATCC14053, Amphotericin B 1.0 mg, 44 hours, 10^3 cfu/mL | ATCC14053, Amphotericin B 1.0 mg, 44 hours, 10^4 cfu/mL | ATCC14053, Amphotericin B 1.0 mg, 44 hours, 10^5 cfu/mL | ATCC14053, Amphotericin B 10 mg, 24 hours, 10^2 cfu/mL | ATCC14053, Amphotericin B 10 mg, 24 hours, 10^3 cfu/mL | ATCC14053, Amphotericin B 10 mg, 24 hours, 10^4 cfu/mL | ATCC14053, Amphotericin B 10 mg, 24 hours, 10^5 cfu/mL | ATCC14053, Amphotericin B 10 mg, 44 hours, 10^2 cfu/mL | ATCC14053, Amphotericin B 10 mg, 44 hours, 10^3 cfu/mL | ATCC14053, Amphotericin B 10 mg, 44 hours, 10^4 cfu/mL | ATCC14053, Amphotericin B 10 mg, 44 hours, 10^5 cfu/mL

Reference: patent US12618095B2, “Medium for Bacillus cereus group detection” (SHIMADZU DIAGNOSTICS CORPORATION, priority 2020, dated 2026)
